These results are taken from patent US10787452B2 (Vertex Pharmaceuticals Incorporated, priority 2012, dated 2020).

In this test the test system is HCT116 colorectal cancer cells. Put plainly: Cisplatin sensitization assay (96 h cell viability MTS).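 Also: compound concentration needed to lower the Cisplatin-alone IC50 by a set fold.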 It counts as cell-based. To be noted: 96 h MTS, compound plus Cisplatin. The method, boiled down:
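HCT116 cells were co-treated with compound and cisplatin, each in 2-fold serial dilutions from a 10 μM top final concentration, as a full matrix. After 96 h at 37 °C, 5% CO2, viability was read by MTS following a 1 h incubation with reagent.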
For the compound `CN1CCOC[C@@H]1c1ccc(-c2ccncc2NC(=O)c2c(N)nn3cc(F)cnc23)cc1` [I-C-66, (S)-2-amino-6-fluoro-N-(4-(4-(4-methylmorpholin-3-yl)phenyl)pyridin-3-yl)pyrazolo[1,5-a]pyrimidine-3-carboxamide], the “Cisplatin Sensitization Assay” value is given as “+++ (Compounds with a Cisplatin sensitization value of <0.02 μM are marked with “+++.”)”.

In the case of `Cc1cncnc1-c1ccncc1NC(=O)c1c(N)nn2cc(F)cnc12` [I-C-67, 2-amino-6-fluoro-N-(4-(5-methylpyrimidin-4-yl)pyridin-3-yl)pyrazolo[1,5-a]pyrimidine-3-carboxamide], the “Cisplatin Sensitization Assay” value is reported as “++ (Compounds with a Cisplatin sensitization value >0.02 μM but <0.2 μM are marked with “++.”)”.

`Cn1ccc(-c2ccncc2NC(=O)c2c(N)nn3cc(F)cnc23)n1` [I-C-68, 2-amino-6-fluoro-N-(4-(1-methyl-1H-pyrazol-3-yl)pyridin-3-yl)pyrazolo[1,5-a]pyrimidine-3-carboxamide]: the “Cisplatin Sensitization Assay” value is listed as “+ (Compounds with a Cisplatin sensitization value >0.2 μM but <5 μM are marked with “+.”)”.

Consider `CC(=O)N1CCC(c2ccncc2NC(=O)c2c(N)nn3cc(F)cnc23)CC1` [I-C-69, N-(4-(1-acetylpiperidin-4-yl)pyridin-3-yl)-2-amino-6-fluoropyrazolo[1,5-a]pyrimidine-3-carboxamide], for which the “Cisplatin Sensitization Assay” value is reported as “+++ (Compounds with a Cisplatin sensitization value of <0.02 μM are marked with “+++.”)”.

Consider `Nc1nn2cc(F)cnc2c1C(=O)Nc1cnccc1C1CCN(C(=O)C2CC2)CC1` [I-C-70, 2-amino-N-(4-(1-(cyclopropanecarbonyl)piperidin-4-yl)pyridin-3-yl)-6-fluoropyrazolo[1,5-a]pyrimidine-3-carboxamide], for which the “Cisplatin Sensitization Assay” value is “+++ (Compounds with a Cisplatin sensitization value of <0.02 μM are marked with “+++.”)”.

Regarding `N#CC1(C(=O)N2CCC(c3ccncc3NC(=O)c3c(N)nn4cc(F)cnc34)CC2)CC1` [I-C-71, 2-amino-N-(4-(1-(1-cyanocyclopropanecarbonyl)piperidin-4-yl)pyridin-3-yl)-6-fluoropyrazolo[1,5-a]pyrimidine-3-carboxamide], the “Cisplatin Sensitization Assay” value was “+++ (Compounds with a Cisplatin sensitization value of <0.02 μM are marked with “+++.”)”.

As for `Cn1nncc1-c1ccncc1NC(=O)c1c(N)nn2cc(F)cnc12` [I-C-72, 2-amino-6-fluoro-N-(4-(1-methyl-1H-1,2,3-triazol-5-yl)pyridin-3-yl)pyrazolo[1,5-a]pyrimidine-3-carboxamide], the “Cisplatin Sensitization Assay” value is on record as “+++ (Compounds with a Cisplatin sensitization value of <0.02 μM are marked with “+++.”)”.

Consider `CN1CCC(c2ccncc2NC(=O)c2c(N)nn3cc(F)cnc23)CC1=O` (centres unmarked) [I-C-73, 2-amino-6-fluoro-N-(4-(1-methyl-2-oxopiperidin-4-yl)pyridin-3-yl)pyrazolo[1,5-a]pyrimidine-3-carboxamide], for which the “Cisplatin Sensitization Assay” value is recorded as “++ (Compounds with a Cisplatin sensitization value >0.02 μM but <0.2 μM are marked with “++.”)”.

Consider `Cn1ccc2c(NC(=O)c3c(N)nn4cc(F)cnc34)cncc21` [I-C-74, 2-amino-6-fluoro-N-(1-methyl-1H-pyrrolo[2,3-c]pyridin-4-yl)pyrazolo[1,5-a]pyrimidine-3-carboxamide], for which the “Cisplatin Sensitization Assay” value is reported as “+ (Compounds with a Cisplatin sensitization value >0.2 μM but <5 μM are marked with “+.”)”.

Turning to `Nc1nn2cc(F)cnc2c1C(=O)Nc1cnccc1C1CCOC1` (centres unmarked) [I-C-75, 2-amino-6-fluoro-N-(4-(tetrahydrofuran-3-yl)pyridin-3-yl)pyrazolo[1,5-a]pyrimidine-3-carboxamide], the “Cisplatin Sensitization Assay” value is “++ (Compounds with a Cisplatin sensitization value >0.02 μM but <0.2 μM are marked with “++.”)”.

In the case of `Nc1nn2cc(F)cnc2c1C(=O)Nc1cnccc1CN1CCCC1=O` [I-C-76, 2-amino-6-fluoro-N-(4-((2-oxopyrrolidin-1-yl)methyl)pyridin-3-yl)pyrazolo[1,5-a]pyrimidine-3-carboxamide], the “Cisplatin Sensitization Assay” value is reported as “+ (Compounds with a Cisplatin sensitization value >0.2 μM but <5 μM are marked with “+.”)”.

Consider `Cc1ncc(-c2ccncc2NC(=O)c2c(N)nn3cc(F)cnc23)n1C` [I-C-77, 2-amino-N-(4-(1,2-dimethyl-1H-imidazol-5-yl)pyridin-3-yl)-6-fluoropyrazolo[1,5-a]pyrimidine-3-carboxamide], for which the “Cisplatin Sensitization Assay” value is “+++ (Compounds with a Cisplatin sensitization value of <0.02 μM are marked with “+++.”)”.

`Cc1ncn(C)c1-c1ccncc1NC(=O)c1c(N)nn2cc(F)cnc12` [I-C-78, 2-amino-N-(4-(1,4-dimethyl-1H-imidazol-5-yl)pyridin-3-yl)-6-fluoropyrazolo[1,5-a]pyrimidine-3-carboxamide]: the “Cisplatin Sensitization Assay” value is “++ (Compounds with a Cisplatin sensitization value >0.02 μM but <0.2 μM are marked with “++.”)”.

Consider `Cn1cncc1-c1c(F)cncc1NC(=O)c1c(N)nn2cc(F)cnc12` [I-C-79, 2-amino-6-fluoro-N-(5-fluoro-4-(1-methyl-1H-imidazol-5-yl)pyridin-3-yl)pyrazolo[1,5-a]pyrimidine-3-carboxamide], for which the “Cisplatin Sensitization Assay” value is reported as “+++ (Compounds with a Cisplatin sensitization value of <0.02 μM are marked with “+++.”)”.

With `CCn1cncc1-c1ccncc1NC(=O)c1c(N)nn2cc(F)cnc12` [I-C-80, 2-amino-N-(4-(1-ethyl-1H-imidazol-5-yl)pyridin-3-yl)-6-fluoropyrazolo[1,5-a]pyrimidine-3-carboxamide], the “Cisplatin Sensitization Assay” value is “+++ (Compounds with a Cisplatin sensitization value of <0.02 μM are marked with “+++.”)”.

In the case of `COc1cncc(NC(=O)c2c(N)nn3cc(F)cnc23)c1-c1cncn1C` [I-C-81, 2-amino-6-fluoro-N-(5-methoxy-4-(1-methyl-1H-imidazol-5-yl)pyridin-3-yl)pyrazolo[1,5-a]pyrimidine-3-carboxamide], the “Cisplatin Sensitization Assay” value is listed as “+++ (Compounds with a Cisplatin sensitization value of <0.02 μM are marked with “+++.”)”.

As to `COc1cncc(NC(=O)c2c(N)nn3cc(F)cnc23)c1-c1cccnc1` [I-C-82, 2-amino-6-fluoro-N-(5′-methoxy-[3,4′-bipyridin]-3′-yl)pyrazolo[1,5-a]pyrimidine-3-carboxamide], the “Cisplatin Sensitization Assay” value is given as “+++ (Compounds with a Cisplatin sensitization value of <0.02 μM are marked with “+++.”)”.

As for `COCCn1cncc1-c1ccncc1NC(=O)c1c(N)nn2cc(F)cnc12` [I-C-83, 2-amino-6-fluoro-N-(4-(1-(2-methoxyethyl)-1H-imidazol-5-yl)pyridin-3-yl)pyrazolo[1,5-a]pyrimidine-3-carboxamide], the “Cisplatin Sensitization Assay” value is on record as “++ (Compounds with a Cisplatin sensitization value >0.02 μM but <0.2 μM are marked with “++.”)”.

In the case of `COc1cncc(NC(=O)c2c(N)nn3cc(F)cnc23)c1C1CC1` [I-C-84, 2-amino-N-(4-cyclopropyl-5-methoxypyridin-3-yl)-6-fluoropyrazolo[1,5-a]pyrimidine-3-carboxamide], the “Cisplatin Sensitization Assay” value is given as “++ (Compounds with a Cisplatin sensitization value >0.02 μM but <0.2 μM are marked with “++.”)”.

Turning to `CN1CCN(C(=O)C2CCN(c3ccncc3NC(=O)c3c(N)nn4cc(F)cnc34)CC2)CC1` [I-G-1, 2-amino-6-fluoro-N-(4-(4-(4-methylpiperazine-1-carbonyl)piperidin-1-yl)pyridin-3-yl)pyrazolo[1,5-a]pyrimidine-3-carboxamide], the “Cisplatin Sensitization Assay” value is reported as “+++ (Compounds with a Cisplatin sensitization value of <0.02 μM are marked with “+++.”)”.
